These results are taken from patent US9549914B2, “Treatment of human cytomegalovirus by modulating Wnt” (priority 2014, dated 2017).

Read-outs that look alike come from different tables or passages of the source.

Data set [1] is described as follows: in vitro. The settings on record: human.
Description: (§1) Cell viability was determined using a colorimetric MTT cell proliferation assay following manufacturer's instructions (Sigma-Aldrich, St. Louis, Mo.). HFFs were treated with varying concentrations of monensin, nigericin, and salinomycin and incubated at 37° C. for 3 days. After the addition of 20 μl/well of MTT (3-(4,5-Dimethyl-2-thiazolyl)-2,5-diphenyl-2H-tetrazolim bromide) (5 mg/ml in PBS), and shaking at 150 rpm for 5 minutes the plates were incubated at 37° C. for 3 hours. Conversion of yellow solution into dark blue formazan by mitochondrial dehydrogenases of living cells was quantified by measuring absorbance at 570 nm. Viable cells in culture medium containing vehicle alone (0.1% DMSO) were referred to as 100% cell viability. For each cell type used for virus infection and drug treatment, the MTT assay was performed at the same time points as the antiviral assay.
The test system of data set [2] is pp28-luciferase HCMV Towne strain. The data set can be described thus: microbe, parasite or virus in culture. Type of data set: cell-based, Human Cytomegalovirus (HCMV). As to conditions: for SI (selectivity index): HCMV in HFFs, mean ± SD; for EC50: Human betaherpesvirus 5, read-out: EC50 (μM), anti-HCMV activity. The procedure: The pp28-luciferase HCMV Towne strain was constructed as previously described (14). This virus expresses luciferase under the control of the late CMV gene promoter, pp28. Luciferase expression is strongly activated 48-72 hours post infection (hpi). […] A GCV-resistant HCMV strain was obtained from a patient with CMV disease. […] Human herpes virus strains were: luciferase HSV1-KOS/Dlux/oriS (15) and clinical isolates of HSV1 and HSV2. All clinical isolates were provided by the clinical virology laboratory with no identifiers that can link to a specific subject. The Johns Hopkins Office of Human Subject Research Institutional Review Board determined that this research qualified for an exemption.
Human Foreskin Fibroblasts (HFFs) passage 12-16 (ATCC, CRL-2088™) were grown in Dulbecco's Modified Eagle Medium (DMEM) containing 10% fetal bovine serum (FBS) (Gibco, Carlsbad, Calif.) in a 5% CO2 incubator at 37° C. and used for infection with HCMV or HSV at multiplicity of infection of 1 PFU/cell (MOI=1) unless otherwise specified. Following 90 minute adsorption (60 min for HSV), media was removed and cells were washed with PBS. DMEM with 4% FBS containing compounds was added to each well. For HCMV, infected, treated HFFs were collected at 72 hpi and lysates were assayed for luciferase activity using a luciferase assay kit (Promega, Madison, Wis.) on GloMax®-Multi+ Detection System (Promega) according to manufacturer's instructions.

A short description of data set [3]: in vitro. As to conditions: human. The source holds these as a separate data set.
Description: as §1
Data set [4] deals with HCMV. Put plainly: Reversibility of HCMV inhibition, real-time PCR in supernatants. Type of data set: cell-based, Human Cytomegalovirus (HCMV). As to conditions: treated 1, 2 or 3 days, then fresh media; HCMV DNA in supernatants at day 6 post infection. From the text:
FIG. 4: Effects of monensin, nigericin, salinomycin and GCV on replication characteristics. A. Reversibility of HCMV replication: Compounds were present in HCMV-infected HFFs at the indicated intervals in days. Virus DNA was quantified by real-time PCR in supernatants at 6 days post infection. Data represent mean values (±SD) of triplicate determinations from two independent experiments. B. Inhibition of DNA replication, pp28 expression and virus DNA yield: DNA replication was quantified by real-time PCR in cells collected 48 hpi. Pp28-luciferase activity was measured in cell lysates collected at 72 hpi. Virus DNA yield was measured by real-time PCR in supernatants of infected cells collected at 96 hpi. The concentration of compounds was: 0.1 μM for monensin and nigericin, 1 μM for salinomycin and 10 μM for GCV. Data represent mean values (±SD) of triplicate determinations from two independent experiments.
The quantitative CMV real-time PCR assay is based on detection of a 151 bp region from the highly conserved US17 gene (16). The limit of detection of the assay is 100 copies/mL (3.0 copies/reaction), and the measurable range is 2.4-8.0 log10 copies/mL. The PCR was performed using a total reaction volume of 50 μL, including TaqMan 2× Universal PCR Master Mix (Applied Biosystems, Foster City, Calif.), primers (300 nM final concentration), FAM-labeled probe (200 nM final concentration), dH2O, and template (10 μl). Amplification was performed on a 7500 Real-Time PCR System (Applied Biosystems, Foster City, Calif.). PCR conditions were: 50° C. for 2 min, 95° C. for 10 min, 40 cycles of 95° C. for 15 s and 60° C. for 60 s. Quantification standards were prepared by cloning the US17 amplicon in the pCR®2.1-TOPO® plasmid vector (Invitrogen, Carlsbad, Calif.). Serial 10-fold dilutions of plasmid from 7.0 to 1.0 log10 copies/reaction were included with each assay and used to establish a standard curve. The slope and R^2 of the standard curve were −3.3±0.1 and >0.990, respectively. Assay controls included quantified CMV AD 169 DNA (Advanced Biotechnologies Inc.) and quantified Towne CMV at 3.0 and 5.0 log10 copies/mL. Quantitative CMV data were expressed as viral DNA copies per milliliter. The real-time PCR was used for quantification of HCMV replication in cell lysates at 48 hpi, virus DNA yield in supernatants at 96 hpi and for a reversibility assay (14, 16).
To test whether HCMV inhibition by monensin, nigericin and salinomycin was reversible, infected HFFs were treated for 1, 2, or 3 days followed by removal of the media containing the compounds, and adding fresh media until 6 days post infection. HCMV DNA was quantified in supernatants of infected cells at day 6 post infection by real-time PCR.
For orientation: In qPCR the cycle at which signal appears reflects the starting amount.

Data set [5] in a line: in vitro. As to conditions: human. The source holds these as a separate data set.
Description: as §1
Data set [6] concerns GCV-resistant HCMV strain (UL97 mutation H520Q). Put plainly: GCV-resistant HCMV strain, virus DNA yield by real-time PCR. Type of data set: cell-based, Human Cytomegalovirus (HCMV). The settings on record: Human betaherpesvirus 5, read-out: EC50 against GCV-resistant HCMV strain.
Description: HFFs cells were infected with a GCV-resistant HCMV and treated with monensin (0.01 μM-1 μM), nigericin (0.005 μM-0.5 μM), salinomycin (0.03 μM-10 μM) or GCV (1 μM-30 μM). Virus DNA yield was quantified by real-time PCR in supernatants of infected cells 96 hpi. Data represent mean values (±SD) of triplicate determinations from two independent experiments.
The quantitative CMV real-time PCR assay is based on detection of a 151 bp region from the highly conserved US17 gene (16). The limit of detection of the assay is 100 copies/mL (3.0 copies/reaction), and the measurable range is 2.4-8.0 log10 copies/mL. […] Quantification standards were prepared by cloning the US17 amplicon in the pCR®2.1-TOPO® plasmid vector (Invitrogen, Carlsbad, Calif.). […] Assay controls included quantified CMV AD 169 DNA (Advanced Biotechnologies Inc.) and quantified Towne CMV at 3.0 and 5.0 log10 copies/mL. Quantitative CMV data were expressed as viral DNA copies per milliliter. The real-time PCR was used for quantification of HCMV replication in cell lysates at 48 hpi, virus DNA yield in supernatants at 96 hpi and for a reversibility assay (14, 16).
Data set [7] has as its system Wnt/β-catenin signaling proteins. Put plainly: Western blot of Wnt/β-catenin signaling proteins in HSV1-infected HFFs. Type of data set: cell-based, Human. As to conditions: 48 hpi with HSV1-KOS (Dlux/OriS), concentrations resulting in full HCMV inhibition. The procedure:
FIG. 7: Effect of monensin, nigericin and salinomycin on expression of Wnt/β-catenin signaling proteins in non-infected and HSV1-infected HFFs. FIG. 7A: Expression of Wnt5a/b, Axin1, β-catenin, and actin (control) in non-infected (Mock), and HSV1-infected HFFs (MOI=0.1) treated with monensin (0.1 μM), nigericin (0.1 μM), salinomycin (1 μM) and GCV (10 μM) was determined after 48 h. Representative data from three independent experiments is shown. FIG. 7B: Expression of Wnt5a/b, Axin1, β-catenin, and actin (control) in non-infected (Mock), and HSV1-infected HFFs (MOI=0.1) treated with monensin (0.2 μM), nigericin (0.2 μM) and salinomycin (2 μM) and GCV (10 μM) was determined after 48 h. Representative data from three independent experiments is shown.
Cell lysates were quantified for protein content using bicinchoninic acid (BCA) protein assay kit (Pierce Chemical, Rockford, Ill.). Equivalent amount of proteins were mixed with an equal volume of 2× sample buffer (125 mM Tris-HCL, pH 6.8, 4% SDS, 20% glycerol and 5% β-mercaptoethanol) and boiled at 100° C. for 10 min (except for Wnt and pWnt detection for which samples were not boiled). Denatured proteins were resolved in Tris-glycine polyacrylamide gels (10-12%) and transferred to polyvinylidine difluoride (PVDF) membranes (Bio-Rad Laboratories, Hercules, Calif.) by electroblotting. Membranes were incubated in blocking solution [5% non-fat dry milk and 0.1% Tween-20 in PBS (PBST)] for 1 hr, washed three times with PBST, and incubated with appropriately diluted primary antibodies at 4° C. overnight. Membranes were washed with PBST and incubated with horseradish peroxidase-conjugated secondary antibodies in PBST for 1 hr at room temperature. Following washing with PBST, protein bands were visualized by chemiluminescence using SuperSignal West Dura and Pico reagents (Pierce Chemical, Rockford, Ill.). The following antibodies were used for detection of CMV proteins: mouse anti-IE1 and IE2, (MAb810); mouse anti-beta-actin antibody (Millipore, Billerica, Mass.); mouse anti-UL44 (Santa Cruz biotechnology Santa Cruz, Calif.); mouse anti-pp65 (Vector laboratories, Burlingame, Calif.); horseradish peroxidase (HRP)-conjugated anti-rabbit IgG (Cell Signaling Technology, Beverly, Mass.); and HRP-conjugated anti-mouse IgG, (GE Healthcare, Waukesha, Wis.). The following antibodies were used for detection of proteins in the Wnt pathway: anti-Wnt5a/b, Wnt, phospho-Wnt, Dvl2, Dvl3 and axin1 (Cell Signaling), β-catenin (E-5) (Santa Cruz biotechnology).
(Immunoblotting shows a protein as a band on a membrane.)

Data set [8] deals with luciferase HSV1-KOS/Dlux/oriS. Put plainly: HSV1-KOS/Dlux/oriS yield reduction assay in HFFs. As to conditions: Human alphaherpesvirus 1, 16 h, read-out: HSV1 EC50 (μM) Yield Reduction (HFFs). Type of data set: cell-based.
For the next data set, the system named is HSV2 clinical isolates. The data set can be described thus: HSV2 plaque assay in Vero cells. Type of data set: cell-based. As to conditions: read-out: HSV2 EC50 (μM) Plaque Number (Vero).
The test system of the next data set is HSV1 clinical isolates. The data set can be described thus: HSV1 plaque assay in Vero cells. Type of data set: cell-based. As to conditions: read-out: HSV1 EC50 (μM) Plaque Number (Vero).
For data set [9], the system named is HCMV. Put plainly: HCMV yield reduction (infectious virus released into medium, plaques). Type of data set: cell-based, Human Cytomegalovirus (HCMV).

A word on the EC50: it is the concentration at which the effect is half-maximal. On to `Nc1nc(O)c2ncn(COC(CO)CO)c2n1` [GCV, ganciclovir], for which the CC50 at 3 days in the data set “in vitro [1]” amounted to 247000 ± 33400 nM. Further, the “SI (selectivity index)” value in data set [2] is listed as 96 ± 14. Besides, the EC50 in data set [2] amounted to 2.7 ± 0.1 µM; in data set [6], 7600 nM. The CC50 in “in vitro [3]” and in “in vitro [5]” was above 100000 nM each time. The “reversibility of HCMV inhibition” value with HCMV [4] is on record as “fully reversible”.
Consider `CC[C@@]1([C@@H]2O[C@@H]([C@H]3O[C@@](O)(CO)[C@H](C)C[C@@H]3C)C[C@@H]2C)CC[C@H]([C@]2(C)CC[C@]3(C[C@H](O)[C@@H](C)[C@@H]([C@@H](C)[C@@H](OC)[C@H](C)C(=O)O)O3)O2)O1` [Monensin], for which the CC50 at 3 days in the data set “in vitro [1]” amounted to 3370 ± 520 nM. Also, the “expression of Wnt 5a/b in HSV1-infected HFFs” value in data set [7] is “inhibition”. Moreover, the “expression of axin 1 in HSV1-infected HFFs” value in data set [7] was “did not reduce”. Further, in [7], the “expression of β-catenin in HSV1-infected HFFs” value is given as “did not reduce”. Besides, the EC50 in [8] was 0.08 µM; in data set [2], 0.02 µM; in the data set on HSV2 clinical isolates (Human alphaherpesvirus 2, 48 h, Vero cells, 200 PFU/well, plaques counted after 2 days), 0.34 ± 0.04 µM; in the data set on HSV1 clinical isolates (Human alphaherpesvirus 1, 48 h, Vero cells, 200 PFU/well, plaques counted after 2 days), 1.6 ± 0.14 µM. The “SI (selectivity index)” value in data set [2] was found to be 138 ± 14. Also, the “infectious virus released into the medium (yield reduction), plaques” value with HCMV [9] (infected HFFs treated at 0.1 μM) is “complete absence of plaques”. The “reversibility of HCMV inhibition” value in the data set on HCMV [4] was “weak irreversible inhibition”.
For `CC[C@@H](C(=O)[C@@H](C)[C@@H](O)[C@H](C)[C@@H]1O[C@@H]([C@@H](CC)C(=O)O)CC[C@@H]1C)[C@H]1O[C@]2(C=C[C@@H](O)[C@]3(CC[C@@](C)([C@H]4CC[C@](O)(CC)[C@H](C)O4)O3)O2)[C@H](C)C[C@@H]1C` [Salinomycin, salinomycin], the CC50 at 3 days in “in vitro [1]” amounted to 28400 ± 5900 nM. Moreover, in [7], the “expression of Wnt 5a/b in HSV1-infected HFFs” value was “inhibition”, the “expression of axin 1 in HSV1-infected HFFs” value was “did not reduce” and the “expression of β-catenin in HSV1-infected HFFs” value is “did not reduce”. Further, the EC50 in data set [8] came to 0.6 ± 0.1 µM. In addition, in data set [2], the “SI (selectivity index)” value was 143 ± 18 and the EC50 was determined as 0.2 ± 0.01 µM. In the data set with HSV2 clinical isolates (Human alphaherpesvirus 2, Vero, 48 h), the EC50 was found to be 0.07 ± 0.03 µM. The EC50 with HSV1 clinical isolates (Human alphaherpesvirus 1, Vero, 48 h) worked out at 0.58 ± 0.07 µM. Further, the “infectious virus released into the medium (yield reduction), plaques” value with HCMV [9] (infected HFFs treated at 1 μM) is listed as “complete absence of plaques”. The “reversibility of HCMV inhibition” value with HCMV [4] is “fully reversible”.
